Measured values published in patent publication EP4806892A1, “CEREBLON E3 UBIQUITIN LIGASE INHIBITOR” (GAN & LEE PHARMACEUTICALS CO., LTD., priority 2023, dated 2025).
pIC50: −log10 of the molar value.

Columns and labels:
Assay type in all cases: cell-based
IRAK4 = biological target: T1, IRAK4 (Homo sapiens, UniProt Q9NWZ3); test: IRAK4 degradation in THP-1 cells (Western blot); settings: 24 hours
T1 construct: The supernatant was carefully collected and analyzed for IRAK4 protein levels by immunoblotting; host or cells: THP-1
T1 sequence (Q9NWZ3 1-460): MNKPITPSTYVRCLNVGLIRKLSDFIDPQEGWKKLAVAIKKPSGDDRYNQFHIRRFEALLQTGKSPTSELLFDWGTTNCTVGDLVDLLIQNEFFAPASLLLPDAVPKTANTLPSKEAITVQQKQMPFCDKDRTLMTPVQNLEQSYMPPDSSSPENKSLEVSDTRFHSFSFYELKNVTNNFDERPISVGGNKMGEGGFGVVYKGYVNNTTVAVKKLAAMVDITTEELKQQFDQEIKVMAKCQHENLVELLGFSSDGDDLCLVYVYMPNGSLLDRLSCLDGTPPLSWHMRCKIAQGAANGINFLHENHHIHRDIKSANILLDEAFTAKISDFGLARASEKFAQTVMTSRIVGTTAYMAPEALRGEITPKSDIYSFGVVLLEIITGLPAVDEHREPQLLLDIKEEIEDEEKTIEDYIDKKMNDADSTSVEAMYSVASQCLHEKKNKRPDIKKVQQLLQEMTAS
Protocol: 2 mL of THP-1 cells were seeded into a 6-well cell culture plate at a density of 4 × 10^5 cells/well. After adding 1 µL of compound in dimethyl sulfoxide solution (final concentration 10-10,000 nM) and continuing to incubate at 37°C, 5% CO2 for 24 hours, cells were collected into 2 mL centrifuge tubes and centrifuged at 125 g at 4°C for 5 minutes. The cell pellet was washed once with 1 mL of pre-chilled 1× DPBS and resuspended and lysed in 50 µL of RIPA lysis buffer (P0013B, Beyotime) and 1× protease inhibitor cocktail (P1005, Beyotime). After incubation on ice for 20 minutes, the cells were centrifuged at 14,000 g at 4°C for 30 minutes. The supernatant was carefully collected and analyzed for IRAK4 protein levels by immunoblotting.
Western blotting: The total protein concentration in the collected cell lysate supernatant was determined using the BCA protein concentration assay kit (enhanced) (P0009, Beyotime). Based on the total protein concentration detected by BCA, the protein concentration was adjusted to 1 µg/µL using RIPA lysis buffer and 5× SDS-PAGE protein loading buffer (MB01015, GenScript). The protein was denatured in a 95°C water bath for 5 minutes. After denaturation, the condensed water on the centrifuge tube wall was collected by centrifugation and used as the loading sample. […] Electrophoresis was performed at 100 V for 20 minutes, then switched to 150 V for 40 minutes. After electrophoresis, the proteins in the SDS-PAGE gel were transferred to a PVDF membrane and transferred at a constant voltage of 100 V for 60 minutes. After transfer, the PVDF membrane corresponding to the IRAK4 protein and internal reference protein was cut and incubated in 1× QuickBlock blocking buffer (P0252, Beyotime) for 30 minutes at room temperature on a shaker. […] After incubation, the PVDF membrane was washed three times with 1× TBST buffer for 5 minutes each. […] The membrane was then washed again three times with 1× TBST buffer for 5 minutes each. Finally, the membrane was imaged using a dual-color infrared laser imaging system (Odyssey DLx, LI-COR). Protein maps were analyzed for grayscale values using Image Studio Lite software. The grayscale correction value for each sample was calculated using the formula: grayscale correction value = grayscale value of the target protein / grayscale value of the corresponding internal reference. The grayscale correction values of the compound group and the control group were then compared to calculate the degradation rate of the compound.

TNFα = test: LPS-induced TNFα secretion by PBMC (HTRF detection); settings: Homo sapiens, hPBMC, 20 hours compound then LPS 200 ng/mL for 5 hours, read-out: IC50 (inhibition of LPS-induced TNFα)
Protocol: (§1) After thawing, cryopreserved hPBMC (FPB003F-C, Shanghai OriBiotech) cells were resuspended in RPMI 1640 medium (30-2001,ATCC) containing 10% inactivated FBS (10099141C, Gibco) and cultured overnight at 37°C and 5% CO2. The next day, hPBMC cells were seeded in a 96-well cell culture plate at a density of 2 × 10^5 cells/well/100 µL (2 × 10^6 cells/mL), and 100 µL of compound in dimethyl sulfoxide solution (final concentration 0.0064-2500 nM) was added. […] The cell plate was placed in a 37°C, 5% CO2 incubator for 5 hours, and then centrifuged at 1000 rpm for 15 minutes. 100 µL of cell supernatant was collected from each well for cytokine concentration testing, which was tested immediately or frozen at -80°C for testing.
The TNFα concentration in the supernatant of LPS-induced THP-1 cells was determined using the TNF […] detection kit (62[…], PerkinElmer).
TNFα standard solutions of varying concentrations were prepared according to the product instructions, ranging from 0 to 2500 pg/mL. Equal volumes of Eu Cryptate antibody (1×) and d2 antibody (1×) were used to prepare the antibody mixture. 16 µL of standard solution or sample supernatant and 4 µL of the antibody mixture were added to each well of a 384-well white plate. The mixture was centrifuged at 800 rpm for 1 minute and incubated at room temperature for 2 hours. The absorbance at 620 nm and […] was read using a microplate reader (SPARK m1000pro, TECAN). A standard curve was plotted using the signal values of each TNFα standard solution. The TNFα concentration in each sample was determined based on the corresponding concentration of the signal value on the standard curve. The inhibitory rate of the compound on LPS-induced TNFα expression in THP-1 cell supernatants at different drug concentrations was calculated based on the TNFα concentration. The inhibition rate data were plotted in GraphPad Prism 8.0 software, and the IC50 value was calculated. Inhibition Rate = [1−(OD(Sample)−OD(Blank))/(OD(Control)−OD(Blank))] × 100% [formula] Table 9: Degradation effect of example compounds on IRAK4 in PBMC cells

IL-6 = test: LPS-induced IL-6 secretion by hPBMC (ELISA); settings: Homo sapiens, 20 h compound then LPS 200 ng/mL for 5 h; for inhibition at […]: 2500nM, read-out: Inhibition Rate of IL-6 (2500nM)
Protocol: as §1, with “OriBiotech.)” for “OriBiotech)”, “(30-2001, ATCC)” for “(30-2001,ATCC)”, “h,” for “hours,”, “min.” for “minutes.”, “awhich” for “which”
The IL-6 concentration in the supernatant of hPBMC cells induced by LPS was determined using a Human IL-6 ELISA kit (D6050, RD).
IL-6 standard solutions of varying concentrations were prepared according to the product instructions, ranging from 0 to 300 pg/mL. 100 µL of Assay Diluent RD1W and 100 µL of standard solution or sample supernatant were added to a pre-coated ELISA plate and incubated at room temperature for 2 hours. After washing the plate four times with 1× wash buffer, then 200 µL of Human IL-6 Conjugate was added and incubated at room temperature for 2 hours. After washing the plate four times with 1× wash buffer, then 200 µL of Substrate Solution was added and incubated at room temperature for 20 minutes. Finally, 50 µL of Stop Solution was added to terminate the reaction. The absorbance at 450 nm and 570 nm were read using a microplate reader (SPARK m1000pro, TECAN). The standard curve was plottd by the signal value of each concentration of IL-6 standard solution, and the IL-6 concentration in each sample was determined according to the corresponding concentration of the signal value of each well on the standard curve. The inhibition rate of the compound on LPS-induced IL-6 in the hPBMC cell supernatant at different drug concentrations was calculated according to the IL-6 concentration. The inhibition rate data were plotted in GraphPad Prism 8.0 software to calculate the IC50 value. Inhibition Rate = [1−(OD(sample)−OD(blank))/(OD(control)−OD(blank))] × 100% [formula] Table 10: Inhibitory effect of Example compounds on LPS-induced IL-6 secretion by hPBMC

Row | SMILES | IRAK4 degradation (10nM) (IRAK4) | IRAK4 degradation (100nM) (IRAK4) | pIC50 (TNFα) | inhibition at […] (IL-6) [%] | inhibition at 0.02 µM (IL-6; 20nM, read-out: Inhibition Rate of IL-6 (20nM)) [%]
1 | O=C1CCN(c2ccc3c(c2)OCC[C@H]2CN(C[C@H]4CC[C@@H](OC5CCN(C(=O)[C@H]6CC[C@H](n7cc(NC(=O)c8cnn9ccc(N%10C[C@H]%11C[C@@H]%10CO%11)nc89)c(C(F)F)n7)CC6)CC5)CC4)CCN32)C(=O)N1 [IR-P-1] | B (50% > degradation rate ≥ 20%) | B (50% > degradation rate ≥ 20%) | 7.10 | 87 | –
2 | O=C1CCN(c2ccc3c(c2)OCC[C@@H]2CN(C[C@H]4CC[C@@H](OC5CCN(C(=O)[C@H]6CC[C@H](n7cc(NC(=O)c8cnn9ccc(N%10C[C@H]%11C[C@@H]%10CO%11)nc89)c(C(F)F)n7)CC6)CC5)CC4)CCN32)C(=O)N1 [IR-P-2] | B (50% > degradation rate ≥ 20%) | B (50% > degradation rate ≥ 20%) | 6.74 | 86 | –
3 | O=C1CCN(c2ccc3c(c2)OCC[C@H]2CN(C[C@H]4CC[C@H](OC5CCN(C(=O)[C@H]6CC[C@H](n7cc(NC(=O)c8cnn9ccc(N%10C[C@H]%11C[C@@H]%10CO%11)nc89)c(C(F)F)n7)CC6)CC5)CC4)CCN32)C(=O)N1 [IR-P-3] | A (a degradation rate ≥ 50%) | A (a degradation rate ≥ 50%) | 7.19 | 89 | 63
4 | O=C1CCN(c2ccc3c(c2)OCC[C@@H]2CN(C[C@H]4CC[C@H](OC5CCN(C(=O)[C@H]6CC[C@H](n7cc(NC(=O)c8cnn9ccc(N%10C[C@H]%11C[C@@H]%10CO%11)nc89)c(C(F)F)n7)CC6)CC5)CC4)CCN32)C(=O)N1 [IR-P-4] | B (50% > degradation rate ≥ 20%) | A (a degradation rate ≥ 50%) | 6.85 | 84 | –
5 | O=C1CCN(c2ccc3c(c2)OC2(CC3)CN(CC3CCN(C(=O)[C@H]4CC[C@H](n5cc(NC(=O)c6cnn7ccc(N8C[C@H]9C[C@@H]8CO9)nc67)c(C(F)F)n5)CC4)CC3)C2)C(=O)N1 [IR-P-5] | B (50% > degradation rate ≥ 20%) | – | 7.16 | 78 | –
